Laboratory results reported in patent publication US10052336B2, “Pulmonary interstitial pneumonia treatment” (priority 2012, dated 2018).

Key:
[1] = test system: idiopathic pulmonary fibrosis; settings: as compared with placebo; Martinez F. J. et al., N Engl J Med 2014; cited from earlier work
[2] = test system: non-specific interstitial pneumonitis (NSIP); assay: Inventor's own treatment course for non-specific interstitial pneumonitis, tracked by CRP level and symptoms; type: in vivo, human; settings: tapered-down doses of prednisone from 30-40 mg/day
Method: NSIP is a sub-type of Idiopathic Pulmonary Fibrosis (IPF), comprising a group of interstitial pneumonias. […] Following the NSIP diagnosis, my tapered prednisone treatments were supplemented with 100 mg/day azathioprine and, subsequently, with 1800 mg/day N-Acetyl Cysteine (NAC).

Row | SMILES | preservation of FVC [i.e., lung capacity] [1] | symptoms (dry cough, dyspnea, fever) [2] | systemic inflammation as measured by CRP level ([2]; eventually approaching and exceeding levels in the teens of mg/l)
1 | CC(=O)N[C@@H](CS)C(=O)O [acetylcysteine, N-Acetyl Cysteine] | no significant benefit |  | 
2 | C[C@]12C=CC(=O)C=C1CC[C@@H]1[C@@H]2C(=O)C[C@@]2(C)[C@H]1CC[C@]2(O)C(=O)CO [prednisone] |  | continued symptoms to worsen | continued to worsen
